Experimental data published in US10428083B2, “Heterocyclylmethyl-thienouracile as antagonists of the adenosine-A2B-receptor” (BAYER PHARMA AKTIENGESELLSCHAFT, priority 2015, dated 2019).

The compounds below were run against human adenosine A2b receptor (Homo sapiens (Human), UniProt P29275) (assay: Cellular in vitro reporter gene test for A2b receptor activity (CHO-K1, CRE-luciferase, NECA stimulation)). Details: recombinant CHO-K1 cell line, CRE-luciferase reporter, antagonism of EC50 concentration of NECA; in some cases means of several determinations, rounded to two significant figures; read-out: A2b receptor IC50.
Type: cell-based
Method in brief: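 CHO-K1 cells with CRE-driven luciferase; antagonists co-incubated with NECA at its EC50, determined in a pre-experiment on each test day. Luciferase read by luminescence 3 h after NECA addition.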

human adenosine A2b receptor, sequence (P29275 whole entry): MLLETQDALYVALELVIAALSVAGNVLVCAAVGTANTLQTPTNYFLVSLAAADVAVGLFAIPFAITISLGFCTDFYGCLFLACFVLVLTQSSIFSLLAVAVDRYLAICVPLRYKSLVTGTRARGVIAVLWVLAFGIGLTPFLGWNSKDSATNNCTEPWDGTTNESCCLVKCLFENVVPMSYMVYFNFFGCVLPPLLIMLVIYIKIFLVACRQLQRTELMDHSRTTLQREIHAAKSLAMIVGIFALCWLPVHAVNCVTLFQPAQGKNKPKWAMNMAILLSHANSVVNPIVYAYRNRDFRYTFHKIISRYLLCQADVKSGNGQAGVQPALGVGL

IC50 [nM] | SMILES
14 | COCCn1c(=O)n(CCc2ccccc2)c(=O)c2c(C(F)(F)F)c(CN3CCCS3(=O)=O)sc21 [Example 18, 6-[(1,1-Dioxido-1,2-thiazolidin-2-yl)methyl]-1-(2-methoxyethyl)-3-(2-phenylethyl)-5-(trifluoromethyl)thieno[2,3-d]pyrimidine-2,4(1H,3H)-dione]
5.6 | CCn1c(=O)c2c(C(F)(F)F)c(CN3CCCS3(=O)=O)sc2n(CCC(F)(F)F)c1=O [Example 19, 6-[(1,1-Dioxido-1,2-thiazolidin-2-yl)methyl]-3-ethyl-5-(trifluoromethyl)-1-(3,3,3-trifluoropropyl)thieno[2,3-d]pyrimidine-2,4(1H,3H)-dione]
5.1 | CCn1c(=O)c2c(C)c(CN3CCOC3=O)sc2n(CCC(F)(F)F)c1=O [Example 21, 3-Ethyl-5-methyl-6-[(2-oxo-1,3-oxazolidin-3-yl)methyl]-1-(3,3,3-trifluoropropyl)thieno[2,3-d]pyrimidine-2,4(1H,3H)-dione]
24 | COCCn1c(=O)n(CCc2ccccc2)c(=O)c2c(C(F)(F)F)c(CN3CCOC3=O)sc21 [Example 22, 1-(2-Methoxyethyl)-6-[(2-oxo-1,3-oxazolidin-3-yl)methyl]-3-(2-phenylethyl)-5-(trifluoromethyl)thieno[2,3-d]pyrimidine-2,4(1H,3H)-dione]
16 | CCn1c(=O)c2c(C(F)(F)F)c(CN3CCOC3=O)sc2n(CCC(F)(F)F)c1=O [Example 23, 3-Ethyl-6-[(2-oxo-1,3-oxazolidin-3-yl)methyl]-5-(trifluoromethyl)-1-(3,3,3-trifluoropropyl)thieno[2,3-d]pyrimidine-2,4(1H,3H)-dione]
8.8 | CCn1c(=O)c2c(C)c(CN3C(=O)OCC3(C)C)sc2n(CCC(F)(F)F)c1=O [Example 24, 6-[(4,4-Dimethyl-2-oxo-1,3-oxazolidin-3-yl)methyl]-3-ethyl-5-methyl-1-(3,3,3-trifluoropropyl)thieno[2,3-d]pyrimidine-2,4(1H,3H)-dione]
5.7 | CCn1c(=O)c2c(C)c(CN3CCCOC3=O)sc2n(CCC(F)(F)F)c1=O [Example 25, 3-Ethyl-5-methyl-6-[(2-oxo-1,3-oxazinan-3-yl)methyl]-1-(3,3,3-trifluoropropyl)thieno[2,3-d]pyrimidine-2,4(1H,3H)-dione]
11 | CCn1c(=O)c2c(C)c(CN3CCN(C(=O)OC(C)(C)C)S3(=O)=O)sc2n(CCC(F)(F)F)c1=O [Example 26, tert-Butyl 5-{[3-ethyl-5-methyl-2,4-dioxo-1-(3,3,3-trifluoropropyl)-1,2,3,4-tetrahydrothieno[2,3-d]pyrimidin-6-yl]methyl}-1,2,5-thiadiazolidine-2-carboxylate 1,1-dioxide]
2.7 | CCn1c(=O)c2c(C)c(CN3CCNS3(=O)=O)sc2n(CCC(F)(F)F)c1=O [Example 27, 6-[(1,1-Dioxido-1,2,5-thiadiazolidin-2-yl)methyl]-3-ethyl-5-methyl-1-(3,3,3-trifluoropropyl)thieno[2,3-d]pyrimidine-2,4(1H,3H)-dione]
1.9 | CCn1c(=O)c2c(C)c(CN3CCNC3=S)sc2n(CCC(F)(F)F)c1=O [Example 28, 3-Ethyl-5-methyl-6-[(2-thioxoimidazolidin-1-yl)methyl]-1-(3,3,3-trifluoropropyl)thieno[2,3-d]pyrimidine-2,4(1H,3H)-dione]
4.1 | CCn1c(=O)c2c(C)c(CN3CCNC3=S)sc2n(CCCF)c1=O [Example 29, 3-Ethyl-1-(3-fluoropropyl)-5-methyl-6-[(2-thioxoimidazolidin-1-yl)methyl]thieno[2,3-d]pyrimidine-2,4(1H,3H)-dione]
5 | CCn1c(=O)c2c(C)c(CN3CCNC3=S)sc2n(CCCCF)c1=O [Example 30, 3-Ethyl-1-(4-fluorobutyl)-5-methyl-6-[(2-thioxoimidazolidin-1-yl)methyl]thieno[2,3-d]pyrimidine-2,4(1H,3H)-dione]
2.2 | CCn1c(=O)c2c(C)c(CN3CCNC3=S)sc2n(CCOC)c1=O [Example 31, 3-Ethyl-1-(2-methoxyethyl)-5-methyl-6-[(2-thioxoimidazolidin-1-yl)methyl]thieno[2,3-d]pyrimidine-2,4(1H,3H)-dione]
11 | CCOCCn1c(=O)n(CC)c(=O)c2c(C)c(CN3CCNC3=S)sc21 [Example 32, 1-(2-Ethoxyethyl)-3-ethyl-5-methyl-6-[(2-thioxoimidazolidin-1-yl)methyl]thieno[2,3-d]pyrimidine-2,4(1H,3H)-dione]
12 | CCn1c(=O)c2c(C)c(CN3CCNC3=S)sc2n(CCOC(C)C)c1=O [Example 33, 3-Ethyl-1-(2-isopropoxyethyl)-5-methyl-6-[(2-thioxoimidazolidin-1-yl)methyl]thieno[2,3-d]pyrimidine-2,4(1H,3H)-dione]
220 | CCn1c(=O)c2c(C)c(CN3CCNC3=S)sc2n(CCC(C)(C)C)c1=O [Example 37, 1-(3,3-Dimethylbutyl)-3-ethyl-5-methyl-6-[(2-thioxoimidazolidin-1-yl)methyl]thieno[2,3-d]pyrimidine-2,4(1H,3H)-dione]
1.9 | Cc1c(CN2CCNC2=S)sc2c1c(=O)n(CC(C)C)c(=O)n2CCC(F)(F)F [Example 38, 3-Isobutyl-5-methyl-6-[(2-thioxoimidazolidin-1-yl)methyl]-1-(3,3,3-trifluoropropyl)thieno[2,3-d]pyrimidine-2,4(1H,3H)-dione]

IC50 [nM] | SMILES
3.6 | COCCn1c(=O)n(CC(C)C)c(=O)c2c(C)c(CN3CCNC3=S)sc21 [Example 39, 3-Isobutyl-1-(2-methoxyethyl)-5-methyl-6-[(2-thioxoimidazolidin-1-yl)methyl]thieno[2,3-d]pyrimidine-2,4(1H,3H)-dione]
7 | Cc1c(CN2CCNC2=S)sc2c1c(=O)n(CC(F)(F)F)c(=O)n2CCCF [Example 40, 1-(3-Fluoropropyl)-5-methyl-6-[(2-thioxoimidazolidin-1-yl)methyl]-3-(2,2,2-trifluoroethyl)thieno[2,3-d]pyrimidine-2,4(1H,3H)-dione]
12 | COCCn1c(=O)n(CC(F)(F)F)c(=O)c2c(C)c(CN3CCNC3=S)sc21 [Example 41, 1-(2-Methoxyethyl)-5-methyl-6-[(2-thioxoimidazolidin-1-yl)methyl]-3-(2,2,2-trifluoroethyl)thieno[2,3-d]pyrimidine-2,4(1H,3H)-dione]
11 | Cc1c(CN2CCNC2=S)sc2c1c(=O)n(CC(F)F)c(=O)n2CCCF [Example 42, 3-(2,2-Difluoroethyl)-1-(3-fluoropropyl)-5-methyl-6-[(2-thioxoimidazolidin-1-yl)methyl]thieno[2,3-d]pyrimidine-2,4(1H,3H)-dione]
7.7 | COCCn1c(=O)n(CC(F)F)c(=O)c2c(C)c(CN3CCNC3=S)sc21 [Example 43]
5.2 | CCn1c(=O)c2c(C(F)F)c(CN3CCNC3=S)sc2n(CCC(F)(F)F)c1=O [Example 44, 5-(Difluoromethyl)-3-ethyl-6-[(2-thioxoimidazolidin-1-yl)methyl]-1-(3,3,3-trifluoropropyl)thieno[2,3-d]pyrimidine-2,4(1H,3H)-dione]
12 | CCn1c(=O)c2c(C(F)F)c(CN3CCNC3=S)sc2n(CCOC)c1=O [Example 45, 5-(Difluoromethyl)-3-ethyl-1-(2-methoxyethyl)-6-[(2-thioxoimidazolidin-1-yl)methyl]thieno[2,3-d]pyrimidine-2,4(1H,3H)-dione]
29 | COCCn1c(=O)n(CC(C)C)c(=O)c2c(C)c(CN3CCN(C=O)C3=S)sc21 [Example 46, 3-{[3-Isobutyl-1-(2-methoxyethyl)-5-methyl-2,4-dioxo-1,2,3,4-tetrahydrothieno[2,3-d]pyrimidin-6-yl]methyl}-2-thioxoimidazolidine-1-carbaldehyde]
14 | CCn1c(=O)c2c(C)c(CN3CCNC3=O)sc2n(CC(F)(F)F)c1=O [Example 47, 3-Ethyl-5-methyl-6-[(2-oxoimidazolidin-1-yl)methyl]-1-(2,2,2-trifluoroethyl)thieno[2,3-d]pyrimidine-2,4(1H,3H)-dione]
1.4 | CCn1c(=O)c2c(C)c(CN3CCNC3=O)sc2n(CCC(F)(F)F)c1=O [Example 48, 3-Ethyl-5-methyl-6-[(2-oxoimidazolidin-1-yl)methyl]-1-(3,3,3-trifluoropropyl)thieno[2,3-d]pyrimidine-2,4(1H,3H)-dione]
2.5 | CCn1c(=O)c2c(C)c(CN3CCNC3=O)sc2n(CCCC(F)(F)F)c1=O [Example 49, 3-Ethyl-5-methyl-6-[(2-oxoimidazolidin-1-yl)methyl]-1-(4,4,4-trifluorobutyl)thieno[2,3-d]pyrimidine-2,4(1H,3H)-dione]
4.6 | CCn1c(=O)c2c(C)c(CN3CCNC3=O)sc2n(CCF)c1=O [Example 50, 3-Ethyl-1-(2-fluoroethyl)-5-methyl-6-[(2-oxoimidazolidin-1-yl)methyl]thieno[2,3-d]pyrimidine-2,4(1H,3H)-dione]
12 | CCn1c(=O)c2c(C)c(CN3CCNC3=O)sc2n(CCCF)c1=O [Example 51, 3-Ethyl-1-(3-fluoropropyl)-5-methyl-6-[(2-oxoimidazolidin-1-yl)methyl]thieno[2,3-d]pyrimidine-2,4(1H,3H)-dione]
6.6 | CCn1c(=O)c2c(C)c(CN3CCNC3=O)sc2n(CCCCF)c1=O [Example 52, 3-Ethyl-1-(4-fluorobutyl)-5-methyl-6-[(2-oxoimidazolidin-1-yl)methyl]thieno[2,3-d]pyrimidine-2,4(1H,3H)-dione]
14 | C=C(Cn1c(=O)n(CC)c(=O)c2c(C)c(CN3CCNC3=O)sc21)C(F)(F)F [Example 53, 3-Ethyl-5-methyl-6-[(2-oxoimidazolidin-1-yl)methyl]-1-[2-(trifluoromethyl)prop-2-en-1-yl]thieno[2,3-d]pyrimidine-2,4(1H,3H)-dione]
0.88 | CCn1c(=O)c2c(C)c(CN3CCNC3=O)sc2n(CCOC(F)(F)F)c1=O [Example 57, 3-Ethyl-5-methyl-6-[(2-oxoimidazolidin-1-yl)methyl]-1-[2-(trifluoromethoxy)ethyl]thieno[2,3-d]pyrimidine-2,4(1H,3H)-dione]
